According to patent publication US20240026458A1, “Method for Determining Sensitivity to an Antineoplastic Agent” (UNIVERSITÉ LIBRE DE BRUXELLES, priority 2020, published 2024):

Key:
H3K27me3 = assay: Western blot of global H3K27me3 in cells treated with inhibitor; type: cell-based, human; settings: versus DMSO
Description: The cells were lysed in cell lysis buffer (Cell Signaling, catalog #9803) with phosphatase inhibitor cocktail (Cell Signaling, catalog 5870) and 1 mM PMSF (Sigma, Cat #P7626) for 5 minutes on ice, sonicated 5 times 10 seconds and then centrifuged for 10 min at 14.000 rpm at 4° C. A range of 5 to 30 micrograms of cell lysate was loaded in NuPage 10% Bis-Tris gel (Invitrogen, Cat #NP0315BOX) and separated by electrophoresis. Proteins were transferred on nitrocellulose membranes (Thermo Scientific, Cat #88018). The membranes were incubated overnight with anti-phospho-CAMK2 (Rabbit, 1/133, Cell Signaling, clone D21E4, cat #12716) or anti-phospho-SCR Tyr416 (Rabbit, 1:3000, Cell Signaling, clone D49G4, Cat #6943) or anti-H3K27Me3 Lys27 (Rabbit, 1:3000, Millipore, Cat #17-622) or anti-phospho-MEK1/MEK2 Ser218, SER222, Ser226 (Rabbit, 1:1000, Invitrogen, Cat #44-454G) or anti-phospho-EGFR Y1197 (Rat, 1:500, R&D, MAB8058), anti-CAMK2 (pan) (Rabbit, 1/125, Cell Signaling, clone D11A10, cat #4436) or anti-SRC (Rabbit, 1:1000, Cell Signaling, clone32G6, Cat #2123) or anti-H3 (Rabbit, 1:6000, Abcam, Cat #ab1791) or anti-MEK1/MEK2 (Rabbit, 1:1000, Invitrogen, Cat #PA5-31917) or anti-EGFR (Rabbit, 1:1000, Cell Signaling, clone D38B1, Cat #4267), anti-YES (Rabbit, 1:1000, Cell Signaling, clone D9P3E, Cat #65890) and anti-β-actin (1:2000, Abcam, Cat #ab8227). […]

SOX2 expression = assay: SOX2 mRNA (RT-qPCR) and protein (Western blot) in FAT1 WT cells treated with EZH2 inhibitor; type: cell-based, human; settings: GSK343 500 nM, 7 days, versus DMSO
Description: (§1) The cells were lysed in cell lysis buffer (Cell Signaling, catalog #9803) with phosphatase inhibitor cocktail (Cell Signaling, catalog 5870) and 1 mM PMSF (Sigma, Cat #P7626) for 5 minutes on ice, sonicated 5 times 10 seconds and then centrifuged for 10 min at 14.000 rpm at 4° C. A range of 5 to 30 micrograms of cell lysate was loaded in NuPage 10% Bis-Tris gel (Invitrogen, Cat #NP0315BOX) and separated by electrophoresis. Proteins were transferred on nitrocellulose membranes (Thermo Scientific, Cat #88018). […]
RNA extraction from FACS isolated cells was performed using RNeasy micro kit (QIAGEN) according to the manufacturer's recommendations. For real-time PCR, after nanodrop quantification, the first strand cDNA was synthesized using Superscript II (Invitrogen) and random hexamers (Roche) in […] final volume. Control of genomic contaminations was measured for each sample by performing the same procedure with or without reverse transcriptase. Quantitative PCR assays were performed using 1 ng of cDNA as template, SYBRGreen mix (Applied Bioscience) on Light Cycler 96 (Roche) real-time PCR system. […]

SRC/YES phosphorylation = assay: Western blot of phosphorylated SRC/YES in FAT1 KO cells treated with inhibitor; type: cell-based, human; settings: KN93 10 μM, 96 h, versus DMSO
Description: A388 cells (human skin SCC) cells were maintained in DMEM medium supplemented with 10% FBS, 100 U/ml Pen/Strep and 2 mM L-glutamine. 293T cells were maintained in DMEM (Gibco) supplemented with 10% FBS, 2 mM Glutamine, 100 U/ml Pen/Strep solution, MEM Non-Essential Amino Acids Solution and Pyruvate. All cell lines were acquired from ATCC and cultured at 37 degrees with 20% 02 and 5% CO2.
as §1

surface CD44 = assay: FACS analysis of surface CD44 in FAT1 KO cells treated with inhibitor; type: cell-based, human; settings: CAMK2 inhibitor (KN93) 10 μM, versus DMSO
Description: CD44 expression in FAT1 WT and FAT1 KO human SCC cells was performed after trypsinization of cells and incubation with APC conjugated anti-CD44 (Clone IM7, BioLegend Cat #103011, dilution 1:50) antibody. Living tumor cells were selected by forward and side scatter, doublets discriminating and DAPI dye exclusion.
For CAMK2 inhibition present inventors used CAMK2 inhibitor KN93 (Selleckchem Cat #57423, dissolved in DMSO) at 10 μM and present inventors incubated cells during 96 h refreshing the medium once after 48 h. After 96 h the cells were collected for WB as described above or for FACS analysis. For immunostaining present inventors followed the same treatment but the cells were plated previously on coverslips covered with gelatin.

FAT1 KO human SCC cells = assay: Expression of YAP1, ZEB1, E-Cadherin and SOX2 (immunostaining) in FAT1 KO cells treated with CAMK2 or SRC inhibitors; type: cell-based
Description: After 96 h the cells were collected for WB as described above or for FACS analysis. For immunostaining present inventors followed the same treatment but the cells were plated previously on coverslips covered with gelatin.
After 72 h the cells were collected for WB or immunostaining as described above.

[1] = test system: FAT1 WT and FAT1 KO human SCC cells (A388); assay: Drug sensitivity assay (cell viability by FACS), FAT1 WT versus FAT1 KO cells; type: cell-based; settings: cell viability at 48 h, serial dilution of inhibitor, 5% FBS medium
Description: For the drug sensitivity assay, cells have been seeded at a density of 4000 cells/well in a 96 well plate. […] 48 hours after the start of treatment, cells have been harvested by trypsinization, and quantified by counting the number of living cells by FACS. Living cells were selected by forward and side scatter and by Hoechst dye exclusion. Each data point is the result of at least three independent replicates; each of the replicates is evaluated using a technical duplicate. Drug response curves and IC50 values have been calculated using the Prism8 software.

[2] = FAT1 KO cells treated with inhibitor (data not shown)

SMILES | H3K27me3 (H3K27me3; FAT1 WT cells, GSK343 500 nM, 7 days) | SOX2 mRNA expression (SOX2 expression) | SOX2 protein expression (SOX2 expression) | SRC/YES phosphorylation levels (SRC/YES phosphorylation) | levels of surface CD44 (surface CD44) | SOX2 expression (FAT1 KO human SCC cells; FAT1 KO TCs treated with inhibitor (data not shown)) | E-Cadherin expression (FAT1 KO human SCC cells; [2]) | ZEB1 (FAT1 KO human SCC cells; [2]) | colony morphology (FAT1 KO human SCC cells; [2]) | nuclear YAP1 (FAT1 KO human SCC cells; [2]) | global levels of H3K27me3 (H3K27me3; FAT1 KO cells treated with CAMK2 inhibitor) | sensitivity of FAT1 KO cells as compared to FAT1 WT cells [1]
CCCc1cc(C)[nH]c(=O)c1CNC(=O)c1cc(-c2ccnc(N3CCN(C)CC3)c2)cc2c1cnn2C(C)C [GSK343] | decreased | increased | increased | – | – | – | – | – | – | – | – | –
COc1ccc(S(=O)(=O)N(CCO)c2ccccc2CN(C)C/C=C/c2ccc(Cl)cc2)cc1 [KN93] | – | – | – | greatly decreased | decreased significantly | decrease | increase | strong decrease | more compact epithelial colonies | strong decrease | increased | significantly more sensitive
